One block for each compound: values may come before it.
What was measured:
[1] = test system: SNU398 (human HCC cell line); assay: LC-MS for ATRA in SNU398 cells; details: C86 100 nmol/L, WIN18446 1,000 nmol/L, 24 hours
[2] = test system: Hepa1-6 (mouse HCC cell line); assay: LC-MS for ATRA in Hepa1-6 cells; details: 1,000 nmol/L, 24 hours
Huh7 tumors = Huh7 tumors in NU/J mice; format: in vivo, mouse; details: Huh7
Procedure: FIGS. 26A-26H: Raldh1-INH suppresses HCC growth by altering macrophage functions. FIG. 26A: Huh7 tumor-bearing NU/J mice were treated with C86 (i.p, 10 mg/kg) every day starting when tumor size was approximately 50 mm^3. Tumor volume was measured every 2 days. […] Three or more independent experiments were performed with at least three replicates per experimental group. Unpaired t test, two-tailed. FIG. 26B: AldeRed assay at endpoint on Huh7 tumor treated as described in FIG. 26A. […] Three or more independent experiments were performed with at least three replicates per experimental group. Unpaired t test, two-tailed. FIG. 26C: Huh7 tumor-bearing nude mice were treated with different dose of C86 every day. Tumor volume was measured every 2-3 days. […] Two independent experiments were performed with at least three replicates per experimental group. Unpaired t test, two-tailed. FIG. 26D: Body weight measured every 3-5 days for the experiment outlined in FIG. 26C. FIG. 26E: Parental Huh7 or RALDH1-KO Huh7 cells were implanted subcutaneously into NU/J mice and treated with C86 (i.p, 10 mg/kg) or vehicle (control) every day. […] Three or more independent experiments were performed with at least three replicates per experimental group. Unpaired t test, two-tailed. FIG. 26F: Huh7 tumor-bearing NU/J mice were treated with clodronate liposomes (CloLipo) and/or C86. […] Two independent experiments were performed with at least three replicates per experimental group. Unpaired t test, two-tailed. FIG. 26G: Murine Hepa 1-6 tumors were implanted subcutaneously into C57BL6/J WT mice or LyMCre:RosadnRAR mice. Expression of the dominant negative RAR in myeloid cells slows tumor growth. Two independent experiments were performed with at least three replicates per experimental group. Unpaired t test, two-tailed. FIG. 26H: Huh7 cells were implanted subcutaneously into NU/J mice. When tumor size reached about 50 mm^3, mice were intraperitoneally injected vehicle (control) or C86 daily with or without BMS493 treatment intratumorally every 3 days. BMS493 and C86 suppress tumor growth with the combination showing higher suppression than monotherapy. *, P<0.05; **, P<0.01; ***, P<0.001; n.s., not significant.
Cultured Huh7, Huh1, Hepa 1-6, Hep55, and FS (as indicated in figure legends) tumor cells were detached using 0.25% trypsin (Gibco, catalog #25200056), washed once with 1×PBS, and counted before implantation. 3~6×10^6 tumor cells were implanted subcutaneously (s.c.) into shaved flanks of recipient mice. Tumor dimensions were measured using a caliper starting at the day indicated in the accompanying figure legend and every two to three days thereafter; volume was calculated by using formula Length*Width^2/2. Tumor volumes of 2,000 mm^3, tumor length of 2 cm or tumor ulceration were used as endpoints for survival analyses.
Compound-86, 97 and 99 powder was dissolved in 20% HPβCD saline (2-Hydroxypropyl)-[…]). Drug was administered i.p. or p.o. starting when tumor volume reached 50-150 mm^3 and repeated every day.

[3] = test system: macrophages from primary human monocytes; assay: Numbers of live monocyte-derived macrophages in vitro; format: cell-based; details: C86 treated TCM or BMS493; three days
Procedure: (§1) FIGS. 24A-24E: Raldh1-INH blocks tumor supportive functions of monocytes and macrophages. FIG. 24A: Circulating primary human monocytes were collected from donors and cultured with MCSF (50 ng/mL) to generate macrophages. On day 3 of these cultures, DMSO or RA (100 nmol/L) was added to generate control monocyte-derived macrophages (Control-MoDM) or RA monocyte-derived macrophages (RA-MoDM), respectively. On day 7 of these cultures, macrophages were collected for each well after washing with 1×PBS, mixed with Huh7 cells at approximately 50:50 ratio, and the mix injected into the flanks of NU/J mice. Huh7 tumors cells that were not mixed with any macrophages before flank injection served as an additional control. Tumor volume was measured every 2 days (left graph). 19 days after tumor injection, mice were sacrificed and tumor weight (right graph) was measured. […] Three or more independent experiments were performed with at least three replicates per experimental group. Unpaired t test, two-tailed. […] Tumor growth was monitored daily (left graph). 13 days after tumor cell transplantation, mice were sacrificed and tumor weight measured (right graph). […] Three days later, cells were harvested, counted, and stained with PI for FCS analyses. […] Cell proliferation was measured by counting live cell numbers (y-axis). […] 72 hours later, the cells were washed, counted, and analyzed by FCS. […]

human HCC lines = assay: Human HCC lines cocultured with pretreated macrophages; format: cell-based; details: macrophages exposed to BMS493
Procedure: as §1

hALDHIA1 = molecular target: T1, hALDHIA1 (Homo sapiens, UniProt P00352); assay: hALDH1A1 inhibition (Table 4); format: biochemical
T1 sequence (P00352 1-501): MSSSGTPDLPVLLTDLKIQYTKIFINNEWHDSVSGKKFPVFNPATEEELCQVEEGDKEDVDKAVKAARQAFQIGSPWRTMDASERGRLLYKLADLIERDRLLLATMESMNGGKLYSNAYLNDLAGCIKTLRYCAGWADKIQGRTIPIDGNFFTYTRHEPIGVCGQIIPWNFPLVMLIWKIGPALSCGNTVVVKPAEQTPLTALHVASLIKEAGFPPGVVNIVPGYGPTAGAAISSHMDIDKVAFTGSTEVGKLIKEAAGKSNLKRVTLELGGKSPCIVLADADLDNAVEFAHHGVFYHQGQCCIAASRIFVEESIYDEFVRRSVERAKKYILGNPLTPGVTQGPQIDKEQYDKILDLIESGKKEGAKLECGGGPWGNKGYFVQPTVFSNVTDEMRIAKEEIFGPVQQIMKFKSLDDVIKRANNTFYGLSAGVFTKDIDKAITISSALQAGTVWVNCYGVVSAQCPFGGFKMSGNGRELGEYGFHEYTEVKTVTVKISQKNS
Procedure: (§2) Compounds ALDH inhibitory effects of C-9125, C-9163, and C-9175 were evaluated in a number of cell lines, including MiaPaCa2 and OV90 cell lines, utilizing the AldeFlour assay described elsewhere herein (Table 4).

MiaPaCa2 cells = assay: AldeFlour assay in MiaPaCa2 cells; format: cell-based; details: Homo sapiens, MIA PaCa-2, read-out: MiaPaCa cells IC50
Excerpt: (§3) The Aldefluor assay has been used to identify and isolate cells with high ALDH activities. This assay is based on the principle that ALDH can convert the ALDH-substrate, Bodipy-aminoacetaldehyde (BAAA) into Bodipy-aminoacetate (BAA) which is retained inside the cells. BAAA is uncharged and can diffuse freely into intact viable cells, however BAA cannot cross the membrane due to its net negative charge, which makes remain in the cells and the assay buffer prevents efflux of the BAA from the cells. Therefore, the amount of BAA fluorescence in cells is proportional to ALDH activity and can be measured using a flow cytometer. A specific inhibitor of ALDH, diethylaminobenzaldehyde (DEAB), is used for background fluorescence control.
as §2

SNU398 human HCC cells = assay: AldeRed (Aldefluor) assay in SNU398 cells; format: cell-based
Procedure: The AldeRed assay (EMD Millipore) was performed according to manufacturer's instructions to identify cells with ALDH activity. In brief, single-cell suspensions of Huh7, Huh1, SNU449, SNU398, HEP3B, PLC, Hepa 1-6, Hep55, and AL458A cultured cells or single-cell suspension generated from enzymatic digestion of tumors generated from transplantation of these cells in mice (as indicated in figure legends) were incubated with a fluorescent and non-toxic ALDH substrate (AldeRed 588-A); the fluorescent product accumulates in cells proportional to their ALDH activity. The amount of fluorescence produced is measured by flow cytometry. The ALDH inhibitor diethylaminobenzaldehyde (DEAB, provided with the AldeRed assay kit) was used as a negative control for background fluorescence assessment.
as §3

Structure (SMILES): O=C(NCCCCCCCCNC(=O)C(Cl)Cl)C(Cl)Cl [WIN18446]
ATRA by LC-MS (RALDH1 inhibition) [1]: inhibits both murine and human RALDH1
ATRA by LC-MS (RALDH1 inhibition) [2]: inhibits both murine and human RALDH1

Structure (SMILES): CC1(C)CC=C(C#Cc2ccccc2)c2cc(/C=C/c3ccc(C(=O)O)cc3)ccc21 [BMS 493, (E)-4-(2-(5,5-dimethyl-8-(phenylethynyl)-5,6-dihydronaphthalen-2-yl)vinyl)benzoic acid, reference compound]
tumor mass and volume (Huh7 tumors; intraperitoneal administration, compared to a control (FIGS. 12B-12C)): significant reduction in tumor mass and volume
RA and tumor-CM induced increase in macrophage numbers [3]: reversed
increase of tumor cell numbers by RA pre-treated macrophages (human HCC lines): this effect was reversed

IC50 (hALDHIA1): 6 nM
IC50 (MiaPaCa2 cells): 12 nM
Structure (SMILES): N#CC1(c2ccccc2)CCN(c2c(C(=O)Nc3cnn(CCO)c3)cnc3ccc(F)cc23)CC1 [Compound C-9175, 4-(4-cyano-4-phenylpiperidin-1-yl)-6-fluoro-N-(1-(2-hydroxyethyl)-1H-pyrazol-4-yl)quinoline-3-carboxamide]

IC50 (hALDHIA1): 7 nM
IC50 (MiaPaCa2 cells): 130 nM
Structure (SMILES): N#CC1(c2ccc(-c3c(C(=O)N[C@H]4CC[C@H](O)CC4)cnc4ccc(F)cc34)cc2)CC1 [Compound C-9125, 4-(4-(1-cyanocyclopropyl)phenyl)-6-fluoro-N-((1r,4r)-4-hydroxycyclohexyl)quinoline-3-carboxamide]

IC50 (hALDHIA1): 4 nM
IC50 (MiaPaCa2 cells): 93 nM
Structure (SMILES): N#CC1(c2ccc(-c3c(C(=O)Nc4cnn(CCO)c4)cnc4ccc(F)cc34)cc2)CC1 [Compound C-9163, 4-(4-(1-cyanocyclopropyl)phenyl)-6-fluoro-N-(1-(2-hydroxyethyl)-1H-pyrazol-4-yl)quinoline-3-carboxamide]

Structure (SMILES): N#CC1(c2ccccc2)CCN(c2c(C(=O)N[C@H]3CC[C@H](O)CC3)cnc3ccc(F)cc23)CC1 [Compound C-97, 4-(4-cyano-4-phenylpiperidin-1-yl)-6-fluoro-N-((1r,4r)-4-hydroxycyclohexyl)quinoline-3-carboxamide]
ALDH activity compared to the DMSO control (SNU398 human HCC cells; SNU398, 1 nM): partial inhibition
concentration giving essentially complete inhibition of ALDH (SNU398 human HCC cells; SNU398, Aldefluor assay): ≥ 10 nM
tumor mass and volume (Huh7 tumors; C-86 versus C-97 (FIGS. 17A-17B)): significant reduction in tumor mass and volume
tumor suppressive activity relative to C-86 (Huh7 tumors; FIGS. 17A-17B): enhanced tumor suppressive activity as compared to C-86

Reference: patent US20260248799A1, “COMBINATIONS OF RETINALDEHYDE DEHYDROGENASE 1 (RALDH1) INHIBITORS AND IMMUNOSTIMULATORS AND METHODS USING SAME” (The Trustees of the University of Pennsylvania, priority 2023, published 2026)
